≈ marks a conversion by molar mass, not a printed value.
Experiments:
[1] = system: Staphylococcus aureus ATCC 6538; test: MIC, two-fold microdilution (EUCAST), S. aureus reference strain; assay type: cell-based; conditions: Staphylococcus aureus, ATCC6538, 18 h, read-out: MIC (µM) Staphylococcus aureus ATCC 6538
From the text: (§1) A panel of reference bacteria, including Escherichia coli NCTC 8196, Staphylococcus aureus ATCC 6538, Klebsiella pneumoniae ATCC 13883, and Pseudomonas aeruginosa NCTC 6749, was used to assess the antibacterial activity of the nine tested aziridine phosphines (1–4) and aziridine phosphine oxides (5–9). The two-fold microdilution method, following EUCAST guidelines, was used to determine a minimal inhibitory concentration (MIC) of each compound, as presented in Table S1.
(§2) Antibacterial activity: The in vitro antibacterial activity of nine tested aziridine phosphines (1–4) and aziridine phosphine oxides (5–9) was evaluated against reference bacterial strains (E. coli NCTC 8196, S. aureus ATCC 6538, K. pneumoniae ATCC 13883, P. aeruginosa NCTC 6749) and 12 S. aureus clinical isolates, including two methicillin-resistant isolates (MRSA, D15 and D17) obtained from infected patients hospitalized at the Oncological Hospital in Lodz (Poland). All strains were kept frozen at −80 °C in Tryptic Soy Broth with 15% glycerol. The minimal inhibitory concentration (MIC) is defined as the lowest concentration of the compound that prevents visible growth of bacteria using the microdilution method followed the EUCAST guidelines. Each compound was added to 96-well microplates in two-fold dilutions at concentrations from 3.125 to 100 μM in Mueller–Hinton broth. […] Bacterial culture was added into wells at a density of 5 × 10^5 CFU mL^−1, and plates were incubated at 37 °C for 18 h. As a positive control, an untreated bacterial culture was used, and a clear culture medium served as a negative control. The optical density at OD600 was measured using the SpectraMax i3 Multi-Mode Platform (Molecular Devices, San Jose, CA, USA). Ciprofloxacin hydrochloride (CIP, Sigma-Aldrich, Darmstadt, Germany) was used as a reference antimicrobial drug.

HeLa cells = test: Intracellular ROS measurement (H2DCFDA, flow cytometry); assay type: cell-based, human; conditions: 24 h, concentration equal to IC50, H2DCFDA staining
Description: The intracellular ROS levels were evaluated using 2′,7′-dichlorofluorescein diacetate (H2DCFDA) staining. This cell membrane-permeable probe is deacetylated by cellular esterases to a non-fluorescent compound, which is then oxidized by ROS to 2′,7′-dichlorofluorescein (DCF), which remains in cells, is not removed from them, and emits strong fluorescence that can be quantified using a flow cytometer. To evaluate oxidative stress, HeLa cells were treated with the respective compound at a concentration equal to its IC50 value for 24 h, followed by staining with H2DCFDA. […]
Figure 5 Intracellular ROS generation in HeLa cells after treatment with 5 (blue) and 7 (green) for 24 h at 37 °C and 5% CO2. […] Oxidative stress was evaluated using H2DCFDA by flow cytometry. Data are expressed as the mean ± SD of two experiments. Statistical significance in comparison with the untreated control, measured by two-way analysis of variance (ANOVA) followed by Bonferroni multiple comparison test, is indicated by asterisks: (*) p < 0.05.
Reactive oxygen species measurement: The intracellular level of ROS was analysed by staining with 2′,7′–dichlorofluorescein diacetate (H2DCFDA, Sigma-Aldrich, Darmstadt, Germany). […] This product is highly fluorescent and can be detected on a flow cytometer. […]

[2] = system: Escherichia coli NCTC 8196; test: MIC, two-fold microdilution (EUCAST), E. coli reference strain; assay type: cell-based; conditions: Escherichia coli, NCTC8196, 18 h, read-out: MIC (µM) Escherichia coli NCTC 8196
From the text: as §1, §2

Row | Compound | MIC [1] [µM] | intracellular ROS levels compared to untreated control (HeLa cells) | MIC [2] [µM]
1 | CC(C)C[C@H]1CN1c1ccccc1P(=O)(c1ccccc1)c1ccccc1 [Compound 7] | 50 (≈ 18.8 µg/mL) | increase in ROS levels | > 100
2 | CC(C)[C@@H]1CN1c1ccccc1P(=O)(c1ccccc1)c1ccccc1 [Compound 5] | 50 (≈ 18.1 µg/mL) | the effect was significant only for 5 | > 100
